Laboratory results taken from article PMC9501899 (Journal of the American Chemical Society, 2022).

Experiments:
LRRK2-NanoLuc = biological target: T1, LRRK2-NanoLuc (Homo sapiens, UniProt Q5S007); test: NanoBRET LRRK2 target engagement assay in HEK293 cells; assay type: binding; conditions: for IC50: permeabilized HEK293 cells
T1 construct: host or cells: HEK293
Method: Figure 9 Binding affinities to VHL and LRRK2. (A) Binding affinity of the tested compounds to VHL using the FP assay. […] NanoBRET target engagement assays of tested compounds to VHL (B) and LRRK2 (C) in permeabilized and live-cell modes. The indicated compounds were titrated into HEK293 cells transfected with VHL-NanoLuc (B) or LRRK2-NanoLuc fusion (C) in the presence of VHL tracer (B) or LRRK2 tracer (C). 0.25 and 0.5 μM VHL tracers were used for the permeabilized and live mode VHL engagement assays separately. 0.125 and 0.5 μM of LRRK2 tracer were used for the permeabilized and live mode LRRK2 engagement assays separately. The fractional occupancy of the tracers is plotted against the tested compounds’ concentrations and fitted into “nonlinear regression, one site-log IC50” to obtain the IC50 values of each compound against both permeabilized and live cells, separately. Data points are presented as mean ± SEM from three independent experiments. (D) The IC50 ratios between permeabilized and live mode target engagements of each compound were used to compare their permeabilities.
For VHL and LRRK2 target engagement experiments in live and permeabilized cells, the HEK293 cells were transfected with the VHL-NanoLuc fusion vector (Promega, N275A) or LRRK2-NanoLuc fusion vector (Promega, NV3401) following Promega’s protocol and seeded into a white 384-well plate (Corning3570) at a density of 6000 cells/well. […] The filtered luminescence was measured within 10 min following the addition of the substrate on a GloMax Discover microplate reader (Promega) or a PHERAstar (BMG LABTECH) plate reader equipped with a 450 nm bandpass filter (donor) and a 600 nm long-pass filter (acceptor). […] The plates were then cooled down, and a NanoBRET NanoGlo Substrate and an Extracellular NanoLuc Inhibitor (Promega, N2160) were added before performing the same NanoBRET reading as the permeabilized mode on plate readers. […]

[1] = biological target: T2, LRRK2-NanoLuc with VCB protein (Homo sapiens, UniProt P40337+Q5S007); test: NanoBRET-based ternary binding and cooperativity assay; conditions: for IC50: compound preincubated with VCB, lysate of HEK293 cells, LRRK2 tracer; for cooperativity (α): IC50 ratio without/with VCB
T2 construct: host or cells: HEK293 (digitonin-permeabilized), recombinant VCB added
Method: (A). Schematic illustration of the binary and ternary LRRK2 engagement assays. […] The fractional occupancy of the tracer is plotted against the concentrations of the compounds and fitted into the “nonlinear regression, one site-log IC50” model in GraphPad to obtain the IC50 values. The IC50 ratio between the blue curve and red cure is calculated as cooperativity (α). […] The NanoBRET signal was plotted against the compounds’ concentrations and fitted into “nonlinear regression, Gaussian” model in GraphPad. Error bars are mean ± SEM from three biological independent experiments.
Titration of PROTACs to the lysed cells and LRRK2 tracer in the presence or absence of recombinant VCB protein (VHL complexed with elongin B–elongin C) gives ternary and binary binding affinities of PROTACs for LRRK2, respectively. Similarly, the ternary complex formation assay also used LRRK2-NanoLuc transiently expressed in HEK293 as the BRET donor, but the acceptor was recombinant VCB protein labeled with BODIPY^576/589via the NHS ester-activated cross-linking reaction. PROTACs that can bridge LRRK2 and VCB together will produce a BRET signal (Figure 10E).
The HEK293 cells were transfected with the LRRK2-NanoLuc fusion vector (Promega, NV3401) following Promega’s protocol and seeded into a white 384-well plate (Corning3570) at a density of 6000 cells/well. The cells were then treated with 50 μg/mL of digitonin, 125 nM of LRRK2 tracer, testing compounds at decreasing concentrations (11 concentrations with a 2-fold serial dilution starting from 10 μM) or testing compounds and VCB mix (11 concentrations with a 2-fold serial dilution starting from 10 μM compound). The first six concentrations of VCB start from 32 μM with a 2-fold dilution, while the last five concentrations of VCB were kept fixed at 1 μM. The NanoBRET NanoGlo Substrate (Promega, N157C) was added at concentrations recommended by the manufacturer’s protocol. In the maximum signal control samples (DMSO control), DMSO was added instead of testing compounds. In the minimum signal control samples (no tracer control), DMSO and LRRK2 tracer dilution buffer were used to replace testing compounds and LRRK2 tracer separately. The filtered luminescence was measured within 10 min following the addition of the substrate on a PHERAstar (BMG LABTECH) plate reader equipped with a 450 nm bandpass filter (donor) and a 600 nm long-pass filter (acceptor). The fractional occupancy was calculated according to the equation: fractional occupancy = (mBRETtesting compound – mBRETno tracer control)/(mBRETDMSO control – mBRETno tracer control).

T2 sequence (Q5S007 whole entry): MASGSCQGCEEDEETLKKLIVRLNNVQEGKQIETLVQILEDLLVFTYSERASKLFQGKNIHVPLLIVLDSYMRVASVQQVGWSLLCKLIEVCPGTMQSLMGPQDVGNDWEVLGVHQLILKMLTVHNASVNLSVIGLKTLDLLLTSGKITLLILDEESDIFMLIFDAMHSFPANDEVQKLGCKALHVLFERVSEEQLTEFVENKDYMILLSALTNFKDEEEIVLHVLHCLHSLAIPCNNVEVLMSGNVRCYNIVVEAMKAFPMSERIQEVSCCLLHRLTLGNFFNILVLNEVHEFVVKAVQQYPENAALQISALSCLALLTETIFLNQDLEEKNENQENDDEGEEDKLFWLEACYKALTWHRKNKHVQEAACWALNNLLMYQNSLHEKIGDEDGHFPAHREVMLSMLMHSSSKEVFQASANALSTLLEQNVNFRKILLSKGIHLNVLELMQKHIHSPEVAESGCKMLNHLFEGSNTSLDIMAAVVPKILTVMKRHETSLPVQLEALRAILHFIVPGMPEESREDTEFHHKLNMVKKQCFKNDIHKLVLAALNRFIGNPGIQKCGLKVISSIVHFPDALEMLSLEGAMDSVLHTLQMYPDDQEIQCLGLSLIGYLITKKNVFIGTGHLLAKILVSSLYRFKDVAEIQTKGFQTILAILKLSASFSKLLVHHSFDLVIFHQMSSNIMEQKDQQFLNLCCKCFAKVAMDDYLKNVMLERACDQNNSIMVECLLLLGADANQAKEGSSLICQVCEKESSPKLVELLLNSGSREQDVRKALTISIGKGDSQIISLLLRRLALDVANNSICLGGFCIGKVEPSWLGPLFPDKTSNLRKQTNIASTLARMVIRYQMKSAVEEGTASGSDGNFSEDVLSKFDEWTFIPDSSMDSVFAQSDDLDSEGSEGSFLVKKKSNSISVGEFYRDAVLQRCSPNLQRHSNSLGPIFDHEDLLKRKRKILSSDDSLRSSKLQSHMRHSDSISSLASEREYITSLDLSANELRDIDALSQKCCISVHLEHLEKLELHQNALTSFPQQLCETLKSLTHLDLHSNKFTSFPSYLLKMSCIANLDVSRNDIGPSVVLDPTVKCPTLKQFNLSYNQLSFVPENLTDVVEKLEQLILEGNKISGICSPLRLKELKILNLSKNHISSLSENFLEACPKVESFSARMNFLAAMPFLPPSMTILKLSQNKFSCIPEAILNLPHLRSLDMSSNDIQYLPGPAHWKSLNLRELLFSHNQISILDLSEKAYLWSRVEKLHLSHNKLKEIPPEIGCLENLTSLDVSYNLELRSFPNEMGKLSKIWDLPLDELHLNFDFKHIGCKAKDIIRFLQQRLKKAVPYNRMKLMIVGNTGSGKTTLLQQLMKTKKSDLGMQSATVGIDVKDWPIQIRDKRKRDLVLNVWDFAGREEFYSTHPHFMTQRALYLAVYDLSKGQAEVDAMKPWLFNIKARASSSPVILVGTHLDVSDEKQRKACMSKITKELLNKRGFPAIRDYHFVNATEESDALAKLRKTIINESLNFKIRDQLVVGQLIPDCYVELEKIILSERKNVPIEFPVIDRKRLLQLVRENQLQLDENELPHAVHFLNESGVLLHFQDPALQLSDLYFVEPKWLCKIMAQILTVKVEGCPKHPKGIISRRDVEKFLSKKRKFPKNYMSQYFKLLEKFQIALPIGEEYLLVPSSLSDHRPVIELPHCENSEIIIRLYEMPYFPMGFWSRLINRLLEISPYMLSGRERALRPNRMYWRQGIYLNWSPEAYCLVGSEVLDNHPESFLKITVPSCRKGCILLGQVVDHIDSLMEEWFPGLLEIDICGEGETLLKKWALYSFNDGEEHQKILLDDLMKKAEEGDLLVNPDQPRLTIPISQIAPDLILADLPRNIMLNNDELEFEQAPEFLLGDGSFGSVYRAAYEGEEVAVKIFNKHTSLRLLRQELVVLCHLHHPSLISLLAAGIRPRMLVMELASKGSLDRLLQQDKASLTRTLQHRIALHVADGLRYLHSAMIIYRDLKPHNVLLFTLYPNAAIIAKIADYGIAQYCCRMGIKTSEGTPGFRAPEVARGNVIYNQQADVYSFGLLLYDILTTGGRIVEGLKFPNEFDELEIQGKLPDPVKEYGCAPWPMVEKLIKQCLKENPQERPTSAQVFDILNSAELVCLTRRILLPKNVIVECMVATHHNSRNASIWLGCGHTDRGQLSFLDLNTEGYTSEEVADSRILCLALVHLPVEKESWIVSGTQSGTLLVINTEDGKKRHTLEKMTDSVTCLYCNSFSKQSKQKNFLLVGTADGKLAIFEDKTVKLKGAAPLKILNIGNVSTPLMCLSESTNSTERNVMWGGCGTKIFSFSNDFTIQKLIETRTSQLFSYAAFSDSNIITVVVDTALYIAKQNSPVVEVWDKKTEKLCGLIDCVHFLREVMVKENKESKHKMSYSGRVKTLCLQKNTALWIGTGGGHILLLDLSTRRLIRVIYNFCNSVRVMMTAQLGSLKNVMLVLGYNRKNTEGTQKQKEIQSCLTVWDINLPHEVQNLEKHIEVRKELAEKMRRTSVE
T2 sequence (P40337 54-213 limits assumed): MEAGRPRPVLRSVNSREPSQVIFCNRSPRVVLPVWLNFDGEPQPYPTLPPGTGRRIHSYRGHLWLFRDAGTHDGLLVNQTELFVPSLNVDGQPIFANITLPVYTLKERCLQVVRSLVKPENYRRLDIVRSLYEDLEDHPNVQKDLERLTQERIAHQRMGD
T2 sequence (Q15370 1-104 partner limits assumed): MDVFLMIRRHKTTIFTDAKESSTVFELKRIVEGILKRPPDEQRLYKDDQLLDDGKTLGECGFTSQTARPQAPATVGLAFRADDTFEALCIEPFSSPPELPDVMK
T2 sequence (Q15369 17-112 partner limits assumed): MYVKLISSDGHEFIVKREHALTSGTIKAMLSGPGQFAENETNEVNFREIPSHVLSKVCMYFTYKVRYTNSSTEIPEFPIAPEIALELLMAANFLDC
T1 sequence (Q5S007 whole entry): as the sequence (Q5S007 whole entry) above

Row | SMILES | LRRK2 IC50 Permeabilized/IC50 Live (LRRK2-NanoLuc; ratio used to compare permeabilities) | IC50 [1] [µM] | IC50 (LRRK2-NanoLuc) [µM] | cooperativity (α) [1]
1 | CNc1nc(Nc2ccc(C(=O)N3CCN(CCOCCOCCSC(C)(C)[C@H](NC(=O)C4(F)CC4)C(=O)N4C[C@H](O)C[C@H]4C(=O)NCc4ccc(-c5scnc5C)cc4)CC3)cc2OC)ncc1Cl [SD75] | 0.43 | 1.4 | – | –
2 | CNc1nc(Nc2ccc(C(=O)N3CCN(C[C@H]4CC[C@H](CSC(C)(C)[C@H](NC(=O)C5(F)CC5)C(=O)N5C[C@H](O)CC5C(=O)NCc5ccc(-c6scnc6C)cc5)CC4)CC3)cc2OC)ncc1Cl (stereo partly drawn) [XL01126, (2S,4R)-1-((R)-3-((((1R,4R)-4-((4-(4-((5-Chloro-4-(methylamino)pyrimidin-2-yl)amino)-3-methoxybenzoyl)piperazin-1-yl)methyl)cyclohexyl)methyl)thio)-2-(1-fluorocyclopropane-1-carboxamido)-3-methylbutanoyl)-4-hydroxy-N-(4-(4-methylthiazol-5-yl)benzyl)pyrrolidine-2-carboxamide] | – | 0.35 | 2.6 | 5.7
3 | CNc1nc(Nc2ccc(C(=O)N3CCN(C[C@H]4CC[C@@H](CSC(C)(C)[C@H](NC(=O)C5(F)CC5)C(=O)N5C[C@H](O)CC5C(=O)NCc5ccc(-c6scnc6C)cc5)CC4)CC3)cc2OC)ncc1Cl (some centres unmarked) [XL01134] | – | 0.79 | 2 | 1.4
